Reference: patent US7968570B2, “Isoindolone compounds and their use as metabotropic glutamate receptor potentiators” (AstraZeneca AB, priority 2004, dated 2011)

Target: T1, human mGluR2 receptor (Homo sapiens, UniProt Q14416)
T1 construct: expressed in transfected cells
Experiment: [35S]-GTPγS binding assay of mGluR2 receptor activation
Assay type: biochemical
Details: not given
In short: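 CHO membranes stably expressing human mGluR2 (30 μg) preincubated 15 min at room temperature with compound (3 nM–300 μM), then 1 μM glutamate, 30 μM GDP, 0.1 nM [35S]-GTPγS, 30 min at 30° C in HEPES/NaCl/MgCl2. Filtration counting; EC50 and Emax relative to maximal glutamate effect by non-linear regression.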

T1 sequence (Q14416 19-872): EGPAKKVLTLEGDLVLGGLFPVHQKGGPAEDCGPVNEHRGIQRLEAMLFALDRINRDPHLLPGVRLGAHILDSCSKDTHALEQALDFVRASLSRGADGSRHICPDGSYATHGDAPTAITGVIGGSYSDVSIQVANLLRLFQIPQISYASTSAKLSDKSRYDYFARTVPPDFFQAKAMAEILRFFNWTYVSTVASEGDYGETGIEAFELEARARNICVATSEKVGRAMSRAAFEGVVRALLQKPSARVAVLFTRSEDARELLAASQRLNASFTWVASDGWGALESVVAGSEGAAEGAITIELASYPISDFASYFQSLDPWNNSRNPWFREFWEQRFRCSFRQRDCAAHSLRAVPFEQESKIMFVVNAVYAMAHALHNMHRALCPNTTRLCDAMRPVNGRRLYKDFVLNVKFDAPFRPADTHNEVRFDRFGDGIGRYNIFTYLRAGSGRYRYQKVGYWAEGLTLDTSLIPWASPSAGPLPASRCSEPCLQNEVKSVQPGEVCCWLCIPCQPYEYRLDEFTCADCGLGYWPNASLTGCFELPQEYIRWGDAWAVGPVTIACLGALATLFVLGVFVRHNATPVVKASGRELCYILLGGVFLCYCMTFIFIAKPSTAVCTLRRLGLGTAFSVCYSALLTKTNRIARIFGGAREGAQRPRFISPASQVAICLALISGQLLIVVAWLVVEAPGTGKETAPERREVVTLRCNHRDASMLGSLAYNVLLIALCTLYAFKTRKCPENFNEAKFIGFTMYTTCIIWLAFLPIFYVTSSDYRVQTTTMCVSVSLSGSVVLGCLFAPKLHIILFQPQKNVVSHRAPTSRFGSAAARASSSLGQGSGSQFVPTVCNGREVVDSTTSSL

Row | SMILES | EC50
1 | CNCc1nnc(-c2cc(C)c3c(c2)CN(Cc2ccc(OC(F)(F)F)cc2)C3=O)o1 [Example 181, 7-Methyl-5-(5-methylaminomethyl-[1,3,4]oxadiazol-2-yl)-2-(4-trifluorometh-oxy-benzyl)-2,3-dihydro-isoindol-1-one] | 2120 nM
2 | CCN1CCC(Cc2cc(C)c3c(c2)CN(Cc2ccc(OC(F)(F)F)cc2)C3=O)CC1 [Example 166, 5-(1-Ethyl-piperidin-4-ylmethyl)-7-methyl-2-(4-trifluorometh-oxy-benzyl)-2,3-dihydro-isoindol-1-one] | 520 nM

Same assay, conditions: membranes from CHO cells stably expressing human mGluR2; 1 μM glutamate

Row | SMILES | EC50
3 | COc1cc(Br)cc2c1C(=O)N(Cc1ccc(Cl)cc1)C2 [Example 32, 5-Bromo-2-(4-chloro-benzyl)-7-methoxy-2,3-dihydro-isoindol-1-one] | 2800 nM
4 | O=C1c2c(Cl)cc(Br)cc2CN1Cc1ccc(Cl)cc1 [Example 34, 5-Bromo-7-chloro-2-(4-chloro-benzyl)-2,3-dihydro-isoindol-1-one] | 470 nM
5 | Cc1cc(N2CCN(CCCN(C)C)CC2)cc2c1C(=O)N(Cc1ccc(OC(F)(F)F)cc1)C2 [Example 141, 5-[4-(3-Dimethylamino-propyl)-piperazin-1-yl]-7-methyl-2-(4-trifluoro-methoxy-benzyl)-2,3-dihydro-isoindol-1-one] | 750 nM
6 | Cc1cc(N2CCNCC2)cc2c1C(=O)N(Cc1ccc(OC(F)(F)F)cc1)C2 [Example 123, 7-Methyl-5-piperazin-1-yl-2-(4-trifluoromethoxy-benzyl)-2,3-dihydroisoindol-1-one] | 3850 nM
7 | O=C1c2c(Cl)cc(Br)cc2CN1Cc1ccc(OC(F)(F)F)cc1 [Example 33, 5-Bromo-7-chloro-2-(4-trifluoromethoxy-benzyl)-2,3-dihydro-isoindol-1-one] | 140 nM
8 | Cc1cc(N2CCC(N(C)C)C2)cc2c1C(=O)N(Cc1ccc(Cl)cc1)C2 (stereo not drawn) [Example 119, 2-(4-chlorobenzyl)-5-(3-dimethylamino-pyrollidin-1-yl)-7-methyl-2,3-dihydroisoindol-1-one] | 420 nM
9 | Cc1cc(CN2CCOCC2)cc2c1C(=O)N(Cc1ccc(OC(F)(F)F)cc1)C2 [Example 44, 7-Methyl-5-morpholin-4-ylmethyl-2-(4-trifluoromethoxy-benzyl)-2,3-dihydro-isoindol-1-one] | 590 nM
10 | O=C1c2ccc(N3CCOCC3)cc2CN1Cc1ccc(OC(F)(F)F)cc1 [Example 150, 5-Morpholin-4-yl-2-(4-trifluoromethoxy-benzyl)-2,3-dihydro-isoindol-1-one] | 8760 nM
11 | Cc1cc(N2CCC(N(C)C)C2)cc2c1C(=O)N(Cc1ccc(Oc3ccccc3)cc1)C2 (stereo not drawn) [Example 130, 5-(3-Dimethylamino-pyrrolidin-1-yl)-7-methyl-2-(4-phenoxy-benzyl)-2,3-dihydro-isoindol-1-one] | 100 nM
12 | O=C1c2ccc(N3CCC4(CC3)C(=O)N(Cc3ccc(F)cc3)CN4c3ccccc3)cc2CN1Cc1ccc(OC(F)(F)F)cc1 [Example 153, 3-(4-Fluoro-benzyl)-8-[1-oxo-2-(4-trifluoromethoxy-benzyl)-2,3-dihydro-1H-isoindol-5-yl]-1-phenyl-1,3,8-triaza-spiro[4.5] decan-4-one] | 2640 nM
13 | Cc1cc(N2CCN3CCCC3C2)cc2c1C(=O)N(Cc1ccc(Oc3ccccc3)cc1)C2 (stereo not drawn) [Example 116, 5-(Hexahydro-pyrrolo[1,2-a]pyrazin-2-yl)-7-methyl-2-(4-phenoxybenzyl)-2,3-dihydroisoindol-1-one] | 180 nM
14 | COc1cc(N2CCN3CCCC3C2)cc2c1C(=O)N(Cc1ccc(Cl)cc1)C2 (stereo not drawn) [Example 129] | 6340 nM
15 | O=C(CN1CCN(c2cc(Cl)c3c(c2)CN(Cc2ccc(OC(F)(F)F)cc2)C3=O)CC1)N1CCCC1 [Example 156, 7-Chloro-5-[4-(2-oxo-2-pyrrolidin-1-yl-ethyl)-piperazin-1-yl]-2-(4-trifluoromethoxy-benzyl)-2,3-dihydro-isoindol-1-one] | 320 nM
16 | Cc1cc(N2CCCN3CCCCC3C2)cc2c1C(=O)N(Cc1ccc(OC(F)(F)F)cc1)C2 (stereo not drawn) [Example 122, 7-Methyl-5-(octahydropyrido [1,2-a][1,4]diazepin-2-yl)-2-(4-trifluoromethoxy-benzyl)-2,3-dihydroisoindol-1-one] | 3550 nM
17 | Cc1cc(N2CCN(Cc3ccncc3)CC2)cc2c1C(=O)N(Cc1ccc(Cl)cc1)C2 [Example 143, 2-(4-Chloro-benzyl)-7-methyl-5-(4-pyridin-4-ylmethyl-piperazin-1-yl)-2,3-dihydro-isoindol-1-one] | 420 nM
18 | CCN(CC)C(=O)C1CCCN(Cc2cc(C)c3c(c2)CN(Cc2ccc(OC(F)(F)F)cc2)C3=O)C1 (stereo not drawn) [Example 50, 1-[7-Methyl-1-oxo-2-(4-trifluoromethoxy-benzyl)-2,3-dihydro-1H-isoindol-5-ylmethyl]-piperidine-3-carboxylic acid diethylamide] | 1810 nM
19 | Cc1cc(-c2cccc(CN(C)C)c2)cc2c1C(=O)N(Cc1ccc(OC(F)(F)F)cc1)C2 [Example 87, 5-(3-Dimethylamino-methyl-phenyl)-7-methyl-2-(4-trifluoromethoxy-benzyl)-2,3-dihydro-isoindol-1-one] | 290 nM
20 | Cc1cc(CNCC(C)O)cc2c1C(=O)N(Cc1ccc(OC(F)(F)F)cc1)C2 (stereo not drawn) [Example 52, 5-[(2-Hydroxy-propylamino)-methyl]-7-methyl-2-(4-trifluoromethoxy-benzyl)-2,3-dihydro-isoindol-1-one] | 7020 nM
21 | COCCN1CCN(c2ccc3c(c2)CN(Cc2ccc(OC(F)(F)F)cc2)C3=O)CC1 [Example 147, 5-[4-(2-Methoxy-ethyl)-piperazin-1-yl]-2-(4-trifluoromethoxy-benzyl)-2,3-dihydro-isoindol-1-one] | 6570 nM
22 | Cc1cc(-c2cccnc2)cc2c1C(=O)N(Cc1ccc(Cl)cc1)C2 [Example 98, 2-(4-chlorobenzyl)-7-methyl-5-pyridin-3-yl-2,3-dihydroisoindol-1-one] | 100 nM
23 | Cc1cc(N2CCN(CC3CCCN(C)C3)CC2)cc2c1C(=O)N(Cc1ccc(OC(F)(F)F)cc1)C2 (stereo not drawn) [Example 139, 7-Methyl-5-[4-(1-methyl-piperidin-3-ylmethyl)-piperazin-1-yl]-2-(4-tri-fluoromethoxy-benzyl)-2,3-dihydro-isoindol-1-one] | 1050 nM
24 | Cc1cc(C2CCNCC2)cc2c1C(=O)N(Cc1ccc(OC(F)(F)F)cc1)C2 [Example 158, 7-Methyl-5-piperidin-4-yl-2-(4-trifluoromethoxy-benzyl)-2,3-dihydro-isoindol-1-one] | 2020 nM
25 | CN(C)C1CCN(c2cc(Cl)c3c(c2)CN(Cc2ccc(Cl)cc2)C3=O)C1 (stereo not drawn) [Example 135, 7-Chloro-2-(4-chloro-benzyl)-5-(3-dimethylamino-pyrolidin-1-yl)-2,3-dihydro-isoindol-1-one] | 610 nM
26 | Cc1cc(CNCCCc2ccccc2)cc2c1C(=O)N(Cc1ccc(OC(F)(F)F)cc1)C2 [Example 47, 7-Methyl-5-[(3-phenyl-propylamino)-methyl]-2-(4-trifluoromethoxy-benzyl)-2,3-dihydro-isoindol-1-one] | 340 nM
27 | Cc1cc(CNCc2ccccc2)cc2c1C(=O)N(Cc1ccc(OC(F)(F)F)cc1)C2 [Example 45, 5-(Benzylamino-methyl)-7-methyl-2-(4-trifluoromethoxy-benzyl)-2,3-dihydro-isoindol-1-one] | 390 nM
